# Entries after “also recorded” stand apart in the source; their conditions may differ. Like-named read-outs stand apart in the source and are kept apart here.
# Experiments:
# T Cells = assay: Immunosuppressive activity assay: T cells inhibitory activity; assay type: cell-based; conditions: T-cell; Table 10
# [1] = Immunosuppressive activity assay: cytotoxicity; assay type: cell-based
# [2] = test system: phosphorylation levels of p70S6K and 4E-BP1; assay: Western blotting of mTOR downstream substrate phosphorylation in tumor cells; assay type: cell-based, human; conditions: Rh30, PC-3, MCF-7 and CAKI-1 cells, 1 hour treatment, IGF stimulation, FIG. 2
# Method: Cells were inoculated on a 12-well plate with given densities and allowed to attach overnight. Then the medium was changed to a serum-free one. After starved for 24 hours, the cells were treated with the compound at corresponding concentrations for 1 hour, and then stimulated by IGF for 10 min. The cells were collected, and the phosphorylation levels of p70S6K and 4E-BP1 in the cells were measured by using Western blotting.
# [3] = test system: human rhabdomyosarcoma RH-30 xenograft; assay: RH-30 xenograft on nude mice; conditions: for TV (mm^3) d0: baseline;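 as to all read-outs here: male BALB/cA nude mice with subcutaneous RH-30 tumors, oral dosing versus solvent-fed controls, caliper tumor volume, RTV relative to grouping day, T/C as treated RTV over control RTV ×100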
# Text: Animals: BALB/cA nude mice, male, 40-45 days old, body weight: 21±2 g, provided by Shanghai Institute of Materia Medica, Chinese Academy of Sciences. License No.: SCXK (Shanghai) 2004-0002. Animal number in each group: 6 in negative control group, and 6 in administration group.
# The amount of inoculated cells was 5×10^6. After the xenograft was formed by inoculation, it was used after passed for 3 generations in nude mice.
# MCF-7 cells = assay: SRB growth inhibition, MCF-7 cells; assay type: cell-based, human; conditions: SRB method, 72 hours, different concentrations, FIG. 1
# Method: (§1) After Rh30 cells were treated by the compound at different concentrations, the cell survival rate was detected by SRB method.
# (§2) The above various kinds of tumor cells in logarithmic growth phase were inoculated on a 96-well plate with 90 μl per well, and allowed to attach for 24 hours, followed by the addition of the compound with 10 μl per well. For each concentration, the test was carried out in triplicate wells, and included a control well containing the aqueous medium of normal saline at the corresponding concentration and a blank well without cells for zeroing. The tumor cells were cultured for 72 hours at 37° C. and 5% CO2, and then the culture medium was removed. The cells were fixed with cold 10% TCA (trichloroacetic acid) at 4° C. for 1 hour, then washed with distilled water for 5 times, and dried at room temperature, followed by addition of a SRB (Sigma) solution (4 mg/ml) in 1% glacial acetic acid at 100 μl per well. The cells were stained at room temperature for 15 min, and the supernatant was removed. The plate was washed by 1% acetic acid for 5 times and dried at room temperature. Finally, Tris-solution was added at 150 μl per well, and the A value was measured at a wavelength of 520 nm on an ELISA Reader.
# FKBP-12 protein = molecular target: T1, FKBP-12 protein (Homo sapiens, UniProt P62942); assay: SPR (surface plasma resonance) binding with FKBP-12
# T1 construct: purchased sigma Co
# Method: (1) FKBP-12 protein was purchased from sigma Co.
# (2) HBS-EP buffer solution (10 mM Hepes, 150 mM NaCl, 3.4 mM EDTA, 0.005% (v/v) surfactant P20, pH 7.4)
# (3) Activating reagents EDC and NHS, and blocking reagents Ethanolamine, etc., were purchased from BIACORE AB Co. (Uppsala, Sweden).
# (4) BIAcore 3000 and CM5 chip were purchased from BIACORE AB Co. (Uppsala, Sweden).
# (2) […] was coupled to the FC2 channel on CM5 chip by using the Wizard for amino-coupling in Biacore 3000 controlling soft. 3.3 g/L of FKBP-12 protein was diluted with 10 mM NaAC (pH 4.6) to 66 μg/ml. The surface of the chip was washed by injecting a mixture of 0.1M1-(3-dimethylaminopropyl)-3-ethylcarbodiimide hydrochloride (EDCI) and 0.1M N-hydroxysuccinimide (NHS) (1:1) at a flow rate of 20 μL/min for 7 min. After that, the protein solution was injected, and then a 1M cholamine (pH 8.5) solution was fed for 7 min to block the activated surface of the chip. Preliminary screening and pharmacokinetic tests on the compounds
# The binding abilities of small molecular compounds with FKBP-12 protein were evaluated by SPR (surface plasma resonance). The stock solution of the compound was 10 mM, and was diluted by HBS-EP buffer solution at given ratios. Pharmacokinetic tests were carried out by the Wizard for kinetic analysis in Biacore 3000 controlling soft. The resulted data were fitted by 1:1 Langmuir binding model or stability model in Biacore 3000 analytical soft to obtain the exact kinetic and thermodynamic constants.
# Rh30 cells = assay: SRB growth inhibition, Rh30 cells; assay type: cell-based, human; conditions: SRB method, 72 hours, different concentrations, FIG. 1
# Method: as §1, §2
# CAKI-1 cells = assay: SRB growth inhibition, CAKI-1 cells; assay type: cell-based, human; conditions: SRB method, 72 hours, different concentrations, FIG. 1
# Method: as §1, §2
# PC-3 cells = assay: SRB growth inhibition, PC-3 cells; assay type: cell-based, human; conditions: SRB method, 72 hours, different concentrations, FIG. 1
# Method: as §1, §2
# [4] = test system: human prostate cancer PC-3 xenograft; assay: PC-3 xenograft on nude mice; conditions: 1-5 × 3.5 w; for TV (mm3) d0: baseline
# HL-60 cells = assay: SRB growth inhibition, HL-60 cells; assay type: cell-based, human; conditions: SRB method, 72 hours, different concentrations, FIG. 1
# Method: as §1, §2
# [5] = Table 2, 5 mg/kg p.o, 1-5 × 3 w
# [6] = Table 2, 10 mg/kg p.o, 1-5 × 3 w
# T1 sequence (P62942 whole entry, species assumed): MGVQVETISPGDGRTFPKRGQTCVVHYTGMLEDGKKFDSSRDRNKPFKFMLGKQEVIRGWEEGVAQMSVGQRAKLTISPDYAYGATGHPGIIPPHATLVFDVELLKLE
smiles,measurement,setting,value
CO[C@H]1CC2CC[C@@H](C)[C@@](O)(O2)C(=O)C(=O)N2CCCCC2C(=O)O[C@H]([C@H](C)C[C@@H]2CC[C@@H](OC(=O)OCC(O)CO)[C@H](OC)C2)CC(=O)[C@H](C)/C=C(\C)[C@@H](OC(=O)OCC(O)CO)[C@@H](OC)C(=O)[C@H](C)C[C@H](C)/C=C/C=C/C=C/1C (stereo partly shown) [Y50],IC50,T Cells,9.1 µM
same,Safety Index CC50/IC50,[1]; Table 10,>10.9
same,CC50,"[1]; Table 10, value beyond the >100 μM bound, read-out: Cytotoxicity CC50, value in brackets",7590 µM
same,CC50,"[1]; Table 10, read-out: Cytotoxicity CC50",> 100 µM
same,inhibition of mTOR-catalyzed phosphorylation of p70S6K and 4E-BP1,[2],concentration-dependently suppress; also recorded: comparable inhibitory effects to those of rapamycin
same,Body Weight (g) end,[3]; [5],25.8 g
same,Body Weight (g) start,[3]; [5],22.2 g
same,RTV,[3]; [5],2.9 ± 0.5
same,T/C (%),[3]; [5],32.5%
same,TV (mm^3) d21,[3]; [5],380 ± 146 mm^3
same,TV (mm^3) d0,[3]; [5],132 ± 47 mm^3
same,Body Weight (g) end,[3]; [6],26.0 g
same,Body Weight (g) start,[3]; [6],23.0 g
same,RTV,[3]; [6],3.5 ± 1.1
same,T/C (%),[3]; [6],32.9%
same,TV (mm^3) d21,[3]; [6],415 ± 71 mm^3
same,TV (mm^3) d0,[3]; [6],130 ± 50 mm^3
same,Body Weight (g) end,"[3]; Table 4, 5 mg/kg po, 1-5/2 w",21.5 g
same,Body Weight (g) start,"[3]; Table 4, 5 mg/kg po, 1-5/2 w",20.0 g
same,RTV,"[3]; Table 4, 5 mg/kg po, 1-5/2 w",2.0 ± 0.5
same,T/C (%),"[3]; Table 4, 5 mg/kg po, 1-5/2 w",46.6%
same,TV (mm^3) d14,"[3]; Table 4, 5 mg/kg po, 1-5/2 w",323 ± 124 mm^3
same,TV (mm^3) d0,"[3]; Table 4, 5 mg/kg po, 1-5/2 w",160 ± 47 mm^3
same,inhibitory effects on the growth of MCF-7 cells,MCF-7 cells,comparable to those of rapamycin
same,binding with FKBP12,FKBP-12 protein,concentration-dependently bind
same,Kd,FKBP-12 protein; FKBP12,0.00026 µM
same,koff,FKBP-12 protein; FKBP12,0.14 × 10^−3 S^−1
same,kon,FKBP-12 protein; FKBP12,5.24 × 10^5 M^−1S^−1
same,R^U (Response Unit) compared with rapamycin,FKBP-12 protein; at the same concentration,higher
same,concentration to reach the saturation state for the binding with FKBP12,FKBP-12 protein; compared with rapamycin,lower than that for rapamycin
same,inhibitory effects on the growth of Rh30 cells,Rh30 cells,comparable to those of rapamycin
same,inhibitory effects on the growth of CAKI-1 cells,CAKI-1 cells,comparable to those of rapamycin
same,inhibitory effects on the growth of PC-3 cells,PC-3 cells,comparable to those of rapamycin
same,Body Weight (g) end,"[4]; Table 3, 2.5 mg/kg p.o",17.7 g
same,Body Weight (g) start,"[4]; Table 3, 2.5 mg/kg p.o",19.7 g
same,RTV,"[4]; Table 3, 2.5 mg/kg p.o",2.6 ± 1.1
same,T/C (%),"[4]; Table 3, 2.5 mg/kg p.o",40.2%
same,TV (mm3) d21,"[4]; Table 3, 2.5 mg/kg p.o",273 ± 163 mm3
same,TV (mm3) d0,"[4]; Table 3, 2.5 mg/kg p.o",103 ± 35 mm3
same,Body Weight (g) end,"[4]; Table 3, 5 mg/kg p.o",22.3 g
same,Body Weight (g) start,"[4]; Table 3, 5 mg/kg p.o",22.7 g
same,RTV,"[4]; Table 3, 5 mg/kg p.o",0.65 ± 0.4
same,T/C (%),"[4]; Table 3, 5 mg/kg p.o",10.0%
same,TV (mm3) d21,"[4]; Table 3, 5 mg/kg p.o",70 ± 59 mm3
same,TV (mm3) d0,"[4]; Table 3, 5 mg/kg p.o",98 ± 42 mm3
same,inhibitory effects on the growth of HL-60 cells,HL-60 cells,comparable to those of rapamycin

# Source: patent US8455510B2
